Literature values, collected in US20090196940A1, “COMPOSITIONS AND METHODS FOR SUPPORTING HEAT SHOCK FUNCTION” (priority 2007, published 2009).

Experiments:
[1] = system: cultured mouse skeletal cells (HSP72)
[2] = system: heat shock proteins / HSF1; settings: in vitro, treated cells
HSP70 = settings: mice, administration of schisandrin B

Geranylgeranylacetone
differentiation of myoblasts into myotubules [1]: facilitate the differentiation of myoblasts into myotubules
expression of HSP72 [1]: up-regulated the expression of HSP72
muscular protein content [1]: increased muscular protein content in a dose-dependent manner

C[C@@]12C[C@@]3(O)O[C@@H](O1)[C@]1(COC(=O)c4ccccc4)[C@H]3C[C@@]12O[C@@H]1O[C@H](CO)[C@@H](O)[C@H](O)[C@H]1O [paeoniflorin, Paeoniflorin]
levels of expression of heat shock proteins [2]: enhanced levels of expression of heat shock proteins
phosphorylation of HSF1 [2]: resulted in phosphorylation of HSF1

COc1cc2c(c(OC)c1OC)-c1c(cc3c(c1OC)OCO3)CC(C)C(C)C2 (stereo not drawn) [schisandrin B, Schisandrin B]
production of HSP70 (HSP70): increase the production of HSP70
